From PMC8877008, “Synthesis and Structure–Activity Relationship Studies of Benzimidazole-4,7-dione-Based P2X3 Receptor Antagonists as Novel Anti-Nociceptive Agents” (Molecules, 2022)

What was measured:
[1] = Metabolic stability in microsomal fraction, rat; assay type: in vitro ADME; settings: rat microsomal fraction, read-out: Metabolic Stability (Microsomal Fr.) % remaining after 30 min
[2] = Metabolic stability in microsomal fraction, human; assay type: in vitro ADME; settings: human microsomal fraction, read-out: Metabolic Stability (Microsomal Fr.) % remaining after 30 min
CYP 1A2 = biological target: T1, CYP 1A2 (Homo sapiens, UniProt P05177); test: CYP450 inhibition 1A2; assay type: in vitro ADME; settings: compound 10 μM
T1 sequence (P05177 1-516): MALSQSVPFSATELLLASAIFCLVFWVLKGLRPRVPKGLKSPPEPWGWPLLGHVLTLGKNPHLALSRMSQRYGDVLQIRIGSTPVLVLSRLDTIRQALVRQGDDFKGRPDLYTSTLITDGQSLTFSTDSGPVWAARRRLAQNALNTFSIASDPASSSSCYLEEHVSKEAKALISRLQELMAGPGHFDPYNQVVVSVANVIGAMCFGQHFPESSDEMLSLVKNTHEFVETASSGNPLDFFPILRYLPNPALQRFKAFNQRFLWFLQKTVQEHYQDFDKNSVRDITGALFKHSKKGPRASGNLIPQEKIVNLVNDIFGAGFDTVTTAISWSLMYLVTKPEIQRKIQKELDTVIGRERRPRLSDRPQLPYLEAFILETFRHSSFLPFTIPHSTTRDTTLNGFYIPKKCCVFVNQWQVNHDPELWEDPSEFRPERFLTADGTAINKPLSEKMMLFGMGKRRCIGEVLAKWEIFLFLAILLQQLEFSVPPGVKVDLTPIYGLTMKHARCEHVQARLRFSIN

CYP 2C19 = CYP 2C19 (Homo sapiens, UniProt P33261); test: CYP450 inhibition 2C19; assay type: in vitro ADME; settings: compound 10 μM
CYP 2D6 = CYP 2D6 (Homo sapiens, UniProt P10635); test: CYP450 inhibition 2D6; assay type: in vitro ADME; settings: compound 10 μM
[3] = In vivo pharmacokinetic study in rats; settings: male, SD, plasma, 10 mg/kg; oral administration, 10 mpk, rat
Experimental: Experiments were used to determine any changes during in vivo pharmacokinetics, such as absorption, distribution, metabolism, and excretion of compounds, which are correlated with drug efficacy and toxicity. Pharmacokinetic experiments using rats were mainly conducted using 8-week-old SD male rats (Osan, Kyungki-Do, Korea). A tube was inserted into the femoral vein, the intravenous administration group was administered through the tube, and the oral administration group was administered the drug orally using oral gavage (1–2 mL/kg). Blood collection for the drug was performed at fixed times ([…], 0.25, 0.5, 1, 2, 4, 6, 8, and 24 h) from the time when the tube was inserted into the femoral vein. Blood was centrifuged to separate plasma, and plasma and urine samples were pretreated (minimum 0.5 ng/mL and maximum 8000 ng/mL) using an appropriate organic solvent. For sample preparation, the working solution of rat blank plasma was spiked, followed by preparation of plasma samples with solid phase extraction. Next, the concentration of 100 μL eluent was analyzed by LC–MS/MS (Mass spectrometry 4000 Qtrap with HPLC, Agilent 1200, Santa Clara, CA, USA). The noncompartmental pharmacokinetic parameters were calculated from the blood concentration–time data of the drug analyzed using the noncompartmental analysis model of WinNonlin (Pharsight ver 6.4, Princeton, NJ, USA).

SNL rats = test: Antiallodynic effect, spinal nerve ligation (SNL) neuropathic pain model, von Frey; assay type: in vivo, male Sprague-Dawley rats; settings: intravenous 12 mg/kg, von Frey filaments, five rats
Excerpt: (§1) The experimental protocol (CNUHIACUC-20039) was approved by the Institutional Animal Care and Use Committee of Chonnam National University Hospital. Animal models of neuropathic pain (NP) were constructed by spinal nerve ligation (SNL) or chemotherapeutics injection (chemotherapy-induced peripheral neuropathy, CIPN) in male Sprague-Dawley rats (weight, 150–180 g). Briefly, under sevoflurane anesthesia, the left L5 and L6 spinal nerves near the vertebral column were separated and tightly ligated using 6-0 silk. Cisplatin was administered intraperitoneally at 2 mg/kg once daily for 4 days. The paw withdrawal threshold (PWT) to mechanical stimuli was measured using calibrated 0.41–15.2 g von Frey filaments (Stoelting, Wood Dale, IL, USA), as described previously. […] The antiallodynic effects of the intravenous vehicle and LDD4692 (3mg/rat) were evaluated and expressed as the percentage of the maximal possible effect (% MPE). % MPE = [(post drug PWT − post injured baseline PWT)/(cutoff PWT − post injured baseline PWT)] × 100
(§2) For the analysis of antagonistic activities, all data were calculated by Origin Pro 9.1 software provided by Originlab and the fitting of graphs was proceeded by the growth/sigmoidal and hill1 process within no weights for data selections. For the analysis of the behavioral assessments of pain models, all data are expressed as mean ± SEM. […]

CIPN rats = test: Antiallodynic effect, cisplatin chemotherapy-induced peripheral neuropathy (CIPN) model, von Frey; assay type: in vivo, male Sprague-Dawley rats; settings: intravenous 12 mg/kg, von Frey filaments, five rats
Excerpt: as §1, §2

Solubility in DMSO/water = assay type: physicochemical; settings: DMSO in water

Chain of CYP 2C19 (P33261 whole entry): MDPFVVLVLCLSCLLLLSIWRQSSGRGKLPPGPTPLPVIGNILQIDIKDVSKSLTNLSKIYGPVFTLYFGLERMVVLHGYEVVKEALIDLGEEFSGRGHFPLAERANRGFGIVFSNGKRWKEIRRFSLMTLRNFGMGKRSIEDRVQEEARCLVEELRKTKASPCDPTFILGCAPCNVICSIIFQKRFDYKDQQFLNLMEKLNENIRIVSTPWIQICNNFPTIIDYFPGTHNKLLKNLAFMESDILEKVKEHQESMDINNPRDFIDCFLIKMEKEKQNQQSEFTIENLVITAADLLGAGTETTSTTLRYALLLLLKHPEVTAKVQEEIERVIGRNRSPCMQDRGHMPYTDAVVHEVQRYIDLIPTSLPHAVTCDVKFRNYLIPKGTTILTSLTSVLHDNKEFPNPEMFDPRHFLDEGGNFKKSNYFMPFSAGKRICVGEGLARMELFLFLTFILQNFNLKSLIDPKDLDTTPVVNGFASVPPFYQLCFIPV
Chain of CYP 2D6 (P10635 whole entry): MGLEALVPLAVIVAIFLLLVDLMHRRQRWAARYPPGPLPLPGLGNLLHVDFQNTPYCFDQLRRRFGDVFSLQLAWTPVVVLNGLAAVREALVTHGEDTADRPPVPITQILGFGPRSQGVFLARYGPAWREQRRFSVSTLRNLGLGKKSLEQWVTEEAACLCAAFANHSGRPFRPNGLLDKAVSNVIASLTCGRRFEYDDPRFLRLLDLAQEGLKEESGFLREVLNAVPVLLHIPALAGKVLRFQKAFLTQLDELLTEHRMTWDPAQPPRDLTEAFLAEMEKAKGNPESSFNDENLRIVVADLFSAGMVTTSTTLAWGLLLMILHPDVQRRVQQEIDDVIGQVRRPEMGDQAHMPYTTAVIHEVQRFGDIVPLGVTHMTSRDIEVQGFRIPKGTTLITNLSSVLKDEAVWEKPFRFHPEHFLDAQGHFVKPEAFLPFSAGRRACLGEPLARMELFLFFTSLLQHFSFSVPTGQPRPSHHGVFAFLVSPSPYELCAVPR

SMILES: O=C1C(NC2CCN(C(=O)c3ccc(F)c(F)c3)CC2)=C(Cl)C(=O)c2[nH]c(C(F)(F)F)nc21 [14h, 6-Chloro-5-((1-(3,4-difluorobenzoyl)piperidin-4-yl)amino)-2-(trifluoromethyl)-1H-benzo[d]imidazole-4,7-dione]
- remaining at 0.5 h [1]: > 99%
- remaining at 0.5 h [2]: > 99%
- CYP450 inhibition 1A2 (CYP 1A2): 6.78%
- CYP450 inhibition 2C19 (CYP 2C19): 25.6%
- CYP450 inhibition 2D6 (CYP 2D6): 7.74%
- AUC(0-inf) [3]: 250 ng·h/mL
- Cmax [3]: 40 ng/mL
- Tmax [3]: 0.33 h
- half-life [3]: 7.58 h
- Maximal possible effect (% MPE), antiallodynic (SNL rats): 54%
- Maximal possible effect (% MPE), antiallodynic (CIPN rats): 78%
- Solubility (Solubility in DMSO/water): soluble in 30% DMSO in water
